Assay results reported in US10420831B2, “Inactivation of viruses by delipidation” (priority 2016, dated 2019).
Read-outs that look alike come from different tables or passages of the source. Marks after values point to notes of the source that are not given here.

How the values were obtained:
PRRSV-RESP = assay: Blind passage assay of delipidated PRRSV on Marc-145 cells; assay type: cell-based; conditions: 100 mM MBCD for 90 minutes
[1] = test system: human influenza virus H1N1 A/WSN/33 strain; assay type: cell-based; conditions: 50 mM MBCD
[2] = test system: human influenza virus H1N1 A/WSN/33 strain; assay: Hemagglutination (HA) activity of treated IFV with chicken red blood cells; conditions: 50 mM MBCD
Protocol: Hemagglutination (HA) activity is determined as follows. Freshly isolated chicken blood is washed three times with PBS, and the red blood cells (RBC) are resuspended in PBS at a concentration of 1%. Virus dilutions (50 μL) are made in PBS and mixed with 50 μL of the RBC suspension. The mixture is added to individual wells in a 96-well plate and the RBC are allowed to settle for 45 minutes. The wells are judged to be HA negative (i.e. no agglutination of RBC) if a dot or pellet of RBC is present, and a well is judged to be positive if a smooth suspension of RBC is present.
In addition to MBCD, another lipid solvent, diisopropyl ether (DIPE) is used to delipidate IFV. […] After a brief centrifugation at 2,000×g for 3 minutes, visible solvent is removed, and the aqueous materials are left to dry in a fume hood for 20 minutes. The samples are then centrifuged at 200,000×g for 30 minutes to recover virus particles.

PRRSV strain SD 11-21 = assay: Inactivation of vaccine virus stock, TCID50 virus titration; assay type: cell-based; conditions: PRRSV SD 11-21, final 30 mM MBCD in two additions, 48 hours at room temperature
PRRSV strain ND99-14 = assay: Inactivation kinetics of PRRSV, live virus TCID50 on MARC145 cells; assay type: cell-based
Protocol: Inactivation kinetics experiments were conducted using PRRSV strain ND99-14, described in application U.S. Ser. No. 62/296,658, filed Feb. 18, 2016. […] Room temperature is between about 20° C. and about 25° C., and optimally between about 22° C. and about 24° C.
[…] […] Aliquots for each time point were stored at 4° C. and −70° C. until further use.
After the 24 hour sample was collected, virus was transferred to a new container. […] […] […] Aliquots for each time point were stored at 4° C. and −70° C. until further use.
Ten-fold serial dilutions (10^−1-10^−9) of mock inactivated and inactivated virus were added to MARC145 cells cultured on 96 well plates. The plates were incubated at 37° C. and 5% CO2 for 96 hours to allow live virus to infect cells. Virus replication was determined by observation of cytopathic effect (CPE) due to virus infection of the MARC145 cells. Each well containing a virus dilution was scored either positive or negative with regards to CPE and the resulting numbers of positive or negatice wells for each dilution were used to determine the TCID50/mL using the Reed-Muench TCID50 calculation. The mock inactivated virus was treated to the same media and temperature conditions as the inactivated virus without the addition of the inactivation agent.

Substance: methyl β-cyclodextrin [MBCD]
- plaques detected by the blind passage assay (PRRSV-RESP): no plaques are detected
- IFV infectivity reduced, compared to the mock-treatment ([1]; 37° C., 30 minutes, […]): 2250 fold
- PFU/mL ([1]; IFV, 37° C., 30 minutes): 4.0 × 10^5 PFU/mL
- less infectious in vitro, compared to the mock treatment ([1]; IFV, 45 minute treatment): over 10,000 fold
- PFU/mL ([1]; IFV, end-over-end rotation at 37° C. for 45 minutes): 1.0 × 10^3 PFU/mL
- HA units ([2]; 37° C., 30 minutes): 32 HA units
- effect on HA activity (in words) ([2]; 37° C., 30 minutes): same degree as 2%-8% DIPE
- effect on HA activity (in words) ([2]; 45 minutes): not measurably affected
- HA units ([2]; end-over-end rotation at 37° C. for 45 minutes): 32 HA units
- live virus in MBCD-inactivated virus solution (PRRSV strain SD 11-21): no live virus was detected
- live virus reduced (PRRSV strain ND99-14; 20 mM MBCD, after 15 minutes of incubation): approximately 2.5 logs
- PRRS virus titer (PRRSV strain ND99-14; 20 mM MBCD, room temperature, hour 0.25, samples stored at 4° C.): 5.8^a Log10 TCID50/mL
- PRRS virus titer (PRRSV strain ND99-14; 20 mM MBCD, room temperature, hour 0.25, samples stored at −70° C.): 3.3 Log10 TCID50/mL
- PRRS virus titer (PRRSV strain ND99-14; 20 mM MBCD, room temperature, hour 4, samples stored at 4° C.): 5.8 Log10 TCID50/mL
- PRRS virus titer (PRRSV strain ND99-14; 20 mM MBCD, room temperature, hour 8, samples stored at 4° C.): 5.9 Log10 TCID50/mL
- PRRS virus titer (PRRSV strain ND99-14; 20 mM MBCD, room temperature, hour 8, samples stored at −70° C.): 2.8 Log10 TCID50/mL
- PRRS virus titer (PRRSV strain ND99-14; 20 mM MBCD, room temperature, hour 12, samples stored at 4° C.): 5.6 Log10 TCID50/mL
- PRRS virus titer (PRRSV strain ND99-14; 20 mM MBCD, room temperature, hour 12, samples stored at −70° C.): 3.2 Log10 TCID50/mL
- PRRS virus titer (PRRSV strain ND99-14; 20 mM MBCD, room temperature, hour 16, samples stored at 4° C.): 5.6 Log10 TCID50/mL
- PRRS virus titer (PRRSV strain ND99-14; 20 mM MBCD, room temperature, hour 16, samples stored at −70° C.): 3.2 Log10 TCID50/mL
- PRRS virus titer (PRRSV strain ND99-14; 20 mM MBCD, room temperature, hour 20, samples stored at 4° C.): 5.6 Log10 TCID50/mL
- PRRS virus titer (PRRSV strain ND99-14; 20 mM MBCD, room temperature, hour 20, samples stored at −70° C.): 3.4 Log10 TCID50/mL
- PRRS virus titer (PRRSV strain ND99-14; 20 mM MBCD, room temperature, hour 24, samples stored at 4° C.): 5.6 Log10 TCID50/mL
- PRRS virus titer (PRRSV strain ND99-14; 20 mM MBCD, room temperature, hour 24, samples stored at −70° C.): 3.6 Log10 TCID50/mL
- PRRS virus titer (PRRSV strain ND99-14; 40 mM MBCD (second 20 mM added at 24 h), hour 30, samples stored at 4° C.): 0 Log10 TCID50/mL
- PRRS virus titer (PRRSV strain ND99-14; 40 mM MBCD (second 20 mM added at 24 h), hour 30, samples stored at −70° C.): 0 Log10 TCID50/mL
- PRRS virus titer (PRRSV strain ND99-14; 40 mM MBCD (second 20 mM added at 24 h), hour 36, samples stored at 4° C.): 0 Log10 TCID50/mL
- PRRS virus titer (PRRSV strain ND99-14; 40 mM MBCD (second 20 mM added at 24 h), hour 36, samples stored at −70° C.): 0 Log10 TCID50/mL
- PRRS virus titer (PRRSV strain ND99-14; 40 mM MBCD (second 20 mM added at 24 h), hour 42, samples stored at 4° C.): 0 Log10 TCID50/mL
- PRRS virus titer (PRRSV strain ND99-14; 40 mM MBCD (second 20 mM added at 24 h), hour 42, samples stored at −70° C.): 0 Log10 TCID50/mL
- PRRS virus titer (PRRSV strain ND99-14; 40 mM MBCD (second 20 mM added at 24 h), hour 48, samples stored at 4° C.): 0 Log10 TCID50/mL
- PRRS virus titer (PRRSV strain ND99-14; 40 mM MBCD (second 20 mM added at 24 h), hour 48, samples stored at −70° C.): 0 Log10 TCID50/mL
- PRRS virus titer (PRRSV strain ND99-14; 40 mM MBCD (second 20 mM added at 24 h), hour 56, samples stored at 4° C.): 0 Log10 TCID50/mL
- PRRS virus titer (PRRSV strain ND99-14; 40 mM MBCD (second 20 mM added at 24 h), hour 56, samples stored at −70° C.): 0 Log10 TCID50/mL
- PRRS virus titer (PRRSV strain ND99-14; 40 mM MBCD (second 20 mM added at 24 h), hour 64, samples stored at 4° C.): 0 Log10 TCID50/mL
- PRRS virus titer (PRRSV strain ND99-14; 40 mM MBCD (second 20 mM added at 24 h), hour 64, samples stored at −70° C.): 0 Log10 TCID50/mL
- PRRS virus titer (PRRSV strain ND99-14; 40 mM MBCD (second 20 mM added at 24 h), hour 72, samples stored at 4° C.): 0 Log10 TCID50/mL
- PRRS virus titer (PRRSV strain ND99-14; 40 mM MBCD (second 20 mM added at 24 h), hour 72, samples stored at −70° C.): 0 Log10 TCID50/mL
- PRRS virus titer (PRRSV strain ND99-14; 40 mM MBCD (second 20 mM added at 24 h), hour 84, samples stored at 4° C.): 0 Log10 TCID50/mL
- PRRS virus titer (PRRSV strain ND99-14; 40 mM MBCD (second 20 mM added at 24 h), hour 84, samples stored at −70° C.): 0 Log10 TCID50/mL
- PRRS virus titer (PRRSV strain ND99-14; 40 mM MBCD (second 20 mM added at 24 h), hour 96, samples stored at 4° C.): 0 Log10 TCID50/mL
- PRRS virus titer (PRRSV strain ND99-14; 40 mM MBCD (second 20 mM added at 24 h), hour 96, samples stored at −70° C.): 0 Log10 TCID50/mL
- titer of PRRS virus that could be inactivated (PRRSV strain ND99-14; 40 mM MBCD added in a 2 step process): at least 8 log10 TCID50/mL
- virus level after second addition of MBCD (in words) (PRRSV strain ND99-14; second addition of 20 mM MBCD at 24 hours, next time point (30 hours)): undetectable levels
- less virus when stored at −70° C. versus 4° C. (PRRSV strain ND99-14; time point samples with detectable live virus): at least 100 fold
